Patent US8076324B2, “Di(hetero)arylcyclohexane derivatives, their preparation, their use and pharmaceutical compositions comprising them” (Sanofi-Aventis, priority 2007, dated 2011)
Counter-ions that a name gives are not always drawn.

Key:
[1] = biological target: T1, myocardial ATP-sensitive potassium channel (SUR2A/Kir6.2) (UniProt Q61743+Q63563); experiment: Rubidium efflux test on HEK293 cells transfected with SUR2A and Kir6.2 (myocardial action); type: cell-based, SUR2A from the rat, Kir6.2 from the mouse; details: HEK293 cells transfected with SUR2A/Kir6.2; KATP channels opened by rilmakalim; 25 min incubation; read-out: IC50 values for the inhibition of the rubidium efflux
T1 construct: expressed in transfected cells
Experimental: 1) Action on the SUR2A/Kir6.2 potassium channel (myocardial action) The action of the compounds on the ion transport through the myocardial ATP-sensitive potassium channel (SUR2A/Kir6.2) was determined in the rubidium efflux test system described below on human embryonic kidney cells HEK293 which were transfected with the components SUR2A and Kir6.2 (cf. Weyermann et al., Naunyn-Schmiedeberg's Arch. Pharmacol. 369, 374-381 (2004)).
The HEK293 cells were cultured at 37° C. in a humidified air atmosphere with 7% carbon dioxide in minimal essential medium with Earle's salts and L-glutamine (MEM, Gibco), which was supplemented with 10% fetal calf serum and zeozin (0.36 mg/ml) and geneticin (0.75 mg/ml). The transfection of the cells and the preparation of a cell line with stable expression of Kir6.2 from the mouse (accession number AF037313) and SUR2A from the rat (accession number D83598/L40624) were carried out as described in Giblin et al., J. Biol. Chem. 274, 22652-22659 (1999).
60 000 transfected cells per well were inoculated into a poly-D-lysine-coated 96-well microtiter plate (Greiner #650 201). After incubation for 24 h at 37° C., the cells were washed three times with buffer 1 (150 mM NaCl, 2 mM CaCl2, 0.8 mM NaH2PO4, 1 mM MgCl2, 5 mM glucose, 25 mM HEPES, pH=7.4). Subsequently, the buffer solution was replaced by 100 μl of rubidium loading buffer (buffer 1 with 5.4 mM RbCl) and the cells were incubated for a further 3 h at 37° C. The rubidium loading buffer was then removed by washing the cells three times with 200 μl each of potassium chloride wash buffer (buffer 1 with 5.4 mM KCl). After addition of the test substances (70 μl; dissolved in potassium chloride wash buffer with addition of DMSO), the KATP channels of the cells were opened by addition of 70 μl of rilmakalim (2 μM) (cf. Krause et al., Pflügers Arch. 429, 625-635 (1995)) and the cells were incubated at 37° C. for 25 min. Subsequently, the cell supernatants were transferred to a new 96-well microtiter plate and the cells were lyzed by addition of 200 μl of lysis buffer (buffer 1 with 1% Triton X-100). The concentrations of Rb^+ in the cell supernatant and in the cell lyzate were measured by means of atomic absorption spectroscopy using an Al 1200 apparatus (Aurora Instruments Ltd.).
The Rb^+ efflux rate was calculated as [Rb^+SN]/[Rb^+total], wherein [Rb^+SN] is the amount of Rb^+ in the cell supernatant and [Rb^+total] is the sum of the amounts of Rb^+ in the cell supernatant and cell lyzate. IC50 values for the inhibition of the rubidium efflux were calculated with the aid of the Hill equation.

T1 sequence (Q63563 whole entry): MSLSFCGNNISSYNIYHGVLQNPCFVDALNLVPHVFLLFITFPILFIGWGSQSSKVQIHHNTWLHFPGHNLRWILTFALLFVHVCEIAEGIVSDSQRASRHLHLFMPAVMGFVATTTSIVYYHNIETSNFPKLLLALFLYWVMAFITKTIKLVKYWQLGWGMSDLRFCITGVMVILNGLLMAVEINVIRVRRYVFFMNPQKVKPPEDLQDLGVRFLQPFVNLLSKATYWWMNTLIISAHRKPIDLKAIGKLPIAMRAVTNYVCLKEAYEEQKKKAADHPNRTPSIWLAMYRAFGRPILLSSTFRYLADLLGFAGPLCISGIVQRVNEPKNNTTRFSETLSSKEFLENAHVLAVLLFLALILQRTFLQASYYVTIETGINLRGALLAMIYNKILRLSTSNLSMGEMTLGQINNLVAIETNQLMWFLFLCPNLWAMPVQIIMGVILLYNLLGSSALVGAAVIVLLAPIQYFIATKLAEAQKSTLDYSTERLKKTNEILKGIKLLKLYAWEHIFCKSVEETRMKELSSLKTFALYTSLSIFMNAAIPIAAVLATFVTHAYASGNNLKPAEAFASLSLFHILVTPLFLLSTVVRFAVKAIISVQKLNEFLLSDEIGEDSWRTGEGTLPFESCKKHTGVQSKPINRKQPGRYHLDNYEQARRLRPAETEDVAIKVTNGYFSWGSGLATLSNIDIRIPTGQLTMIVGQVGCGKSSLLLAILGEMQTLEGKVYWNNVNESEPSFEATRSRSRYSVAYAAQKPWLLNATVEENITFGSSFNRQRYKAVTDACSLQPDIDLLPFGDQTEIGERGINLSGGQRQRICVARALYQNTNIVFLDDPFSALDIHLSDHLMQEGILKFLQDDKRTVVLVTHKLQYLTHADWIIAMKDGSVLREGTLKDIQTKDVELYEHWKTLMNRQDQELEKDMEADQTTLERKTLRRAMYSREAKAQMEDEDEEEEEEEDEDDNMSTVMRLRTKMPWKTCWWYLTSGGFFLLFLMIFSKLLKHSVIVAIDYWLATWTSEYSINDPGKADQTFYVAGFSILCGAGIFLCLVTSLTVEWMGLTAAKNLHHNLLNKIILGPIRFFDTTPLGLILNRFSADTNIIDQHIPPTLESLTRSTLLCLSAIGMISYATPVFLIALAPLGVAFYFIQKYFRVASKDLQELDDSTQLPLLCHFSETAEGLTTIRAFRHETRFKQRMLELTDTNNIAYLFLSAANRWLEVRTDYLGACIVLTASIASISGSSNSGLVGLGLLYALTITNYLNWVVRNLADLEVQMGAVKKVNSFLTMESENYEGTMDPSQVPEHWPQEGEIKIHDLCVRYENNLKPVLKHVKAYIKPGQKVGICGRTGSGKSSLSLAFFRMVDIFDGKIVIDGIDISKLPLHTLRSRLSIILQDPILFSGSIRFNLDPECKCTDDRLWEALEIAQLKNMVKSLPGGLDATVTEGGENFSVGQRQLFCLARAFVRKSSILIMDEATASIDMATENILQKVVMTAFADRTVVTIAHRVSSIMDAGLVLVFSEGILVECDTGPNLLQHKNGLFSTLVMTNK
T1 sequence (Q61743 whole entry): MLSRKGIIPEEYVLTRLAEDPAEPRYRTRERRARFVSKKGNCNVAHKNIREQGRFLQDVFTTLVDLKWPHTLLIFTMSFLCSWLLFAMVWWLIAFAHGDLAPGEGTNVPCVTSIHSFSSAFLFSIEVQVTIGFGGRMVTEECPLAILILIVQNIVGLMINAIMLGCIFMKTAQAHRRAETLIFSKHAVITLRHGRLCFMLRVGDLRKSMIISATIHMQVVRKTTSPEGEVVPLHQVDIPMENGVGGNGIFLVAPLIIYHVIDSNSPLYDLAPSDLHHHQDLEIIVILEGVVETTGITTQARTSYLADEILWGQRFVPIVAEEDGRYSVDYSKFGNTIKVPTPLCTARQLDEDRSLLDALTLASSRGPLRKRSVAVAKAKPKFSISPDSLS

| SMILES | melting point | IC50 [1] |
| --- | --- | --- |
| O=C(O)[C@]1(c2ccc(F)cc2)CC[C@](Oc2ccccc2)(c2ccc(F)cn2)CC1 [Example 345, Trans-1-(4-Fluorophenyl)-4-(5-fluoropyridin-2-yl)-4-phenoxycyclohexanecarboxylic Acid] | 237 °C | < 1 µM |
| O=C(O)[C@]1(c2ccc(F)cc2)CC[C@](OCC2CC2)(c2cn(CC3CC3)c(-c3ccccc3)n2)CC1 [Example 432, Trans-4-Cyclopropylmethoxy-4-(1-cyclopropylmethyl-2-phenyl-1H-imidazol-4-yl)-1-(4-fluorophenyl)cyclohexanecarboxylic Acid] | 209 °C | < 1 µM |
| CS(=O)(=O)n1c2ccccc2cc1[C@]1(OCC2CC2)CC[C@](C(=O)O)(c2ccccc2)CC1 [Example 440, Cis-4-Cyclopropylmethoxy-4-(1-methanesulfonyl-1H-indol-2-yl)-1-phenylcyclohexanecarboxylic Acid] | 152 °C | < 1 µM |
| O=C(O)[C@]1(c2ccc(F)cc2)CC[C@](OCC2CC2)(c2ccc(F)cn2)CC1 | 211 °C | – |
| O=C(O)[C@]1(c2ccccc2)CC[C@@](Oc2ccc(C(F)(F)F)cc2)(c2nc(-c3ccccc3)n(CC3CC3)n2)CC1 [Example 474, Cis-4-(1-Cyclopropylmethyl-5-phenyl-1H-[1,2,4]triazol-3-yl)-1-phenyl-4-(4-trifluoromethylphenoxy)cyclohexanecarboxylic Acid] | 85 °C | < 1 µM |
| O=C(O)[C@]1(c2ccc(F)cc2)CC[C@@](OCC2CC2)(c2cn(CC3CC3)c(-c3ccccc3)n2)CC1 | 198 °C | – |
| O=C(O)[C@]1(c2ccc(F)cc2)CC[C@](Oc2ncccn2)(c2ccc(F)cn2)CC1 | 159 °C | – |
| CC(C)(C)S(=O)(=O)c1cc(F)cc([C@]2(OCC3CC3)CC[C@](C(=O)O)(c3ccc(F)cc3)CC2)c1 [Example 304-3, Cis-4-Cyclopropylmethoxy-4-[3-fluoro-5-(2-methylpropane-2-sulfonyl)phenyl]-1-(4-fluorophenyl)cyclohexanecarboxylic Acid] | – | < 1 µM |
| Cc1c(F)cc([C@]2(OCC3CC3)CC[C@](C(=O)O)(c3ccc(F)cc3)CC2)cc1S(=O)(=O)C(C)C [Example 304-4, Cis-4-Cyclopropylmethoxy-4-[3-fluoro-4-methyl-5-(propane-2-sulfonyl)phenyl]-1-(4-fluorophenyl)cyclohexanecarboxylic Acid] | – | < 1 µM |
| COC1(c2ccc(C(F)(F)F)cc2)CCC(C(=O)O)(c2ccccc2)CC1 (stereo not drawn) [Example 124] | – | < 1 µM |
| CSc1ccc(C2(O)CCC(C(=O)O)(c3ccccc3)CC2)cc1 (stereo not drawn) [Example 161, 4-Hydroxy-4-(4-methylsulfanylphenyl)-1-phenylcyclohexanecarboxylic Acid] | – | < 1 µM |
| O=C(O)[C@]1(c2ccccc2)CC[C@](OCC2CC2)(c2ccnc(-c3ccccc3)c2)CC1 [Example 489, Trans-4-Cyclopropylmethoxy-1-phenyl-4-(2-phenylpyridin-4-yl)cyclohexanecarboxylic Acid] | – | < 1 µM |
| COC1(c2cccc(C(F)(F)F)c2)CCC(C(=O)O)(c2ccccc2)CC1 (stereo not drawn) [Example 125] | – | < 1 µM |
| CCCOC1(c2ccccc2S(C)(=O)=O)CCC(C(=O)O)(c2ccccc2)CC1 (stereo not drawn) [Example 174] | – | < 1 µM |
| O=C(O)[C@]1(c2ccccc2)CC[C@@](OCC2CC2)(c2cc(-c3ccccc3)ccn2)CC1 [Example 485, Cis-4-Cyclopropylmethoxy-1-phenyl-4-(4-phenylpyridin-2-yl)cyclohexanecarboxylic Acid] | – | < 1 µM |
| CS(=O)(=O)c1cc(F)cc([C@]2(OCC3CC3)CC[C@](C(=O)O)(c3ccc(F)cc3)CC2)c1 [Example 301, Cis-4-Cyclopropylmethoxy-4-(3-fluoro-5-methanesulfonylphenyl)-1-(4-fluorophenyl)cyclohexanecarboxylic Acid] | – | < 1 µM |
| O=C(O)[C@]1(c2ccccc2)CC[C@@](OCC2(c3ccccc3)COC2)(c2ccc(F)cc2)CC1 [Example 499, 4-(4-Fluorophenyl)-1-phenyl-4-(3-phenyloxetan-3-ylmethoxy)cyclohexanecarboxylic Acid] | – | < 1 µM |
| O=C(O)C1(c2ccccc2)CCC(OCC2CC2)(c2ccc(-c3ccc(F)c(Br)c3)cc2)CC1 (stereo not drawn) [Example 275] | – | < 1 µM |
| O=C(O)C1(c2ccc(F)cc2)CCC(OCC2CC2)(c2ccc(F)cc2)CC1 (stereo not drawn) [Example 249] | – | < 1 µM |

The remaining lines, values ahead:

| melting point | IC50 [1] | SMILES |
| --- | --- | --- |
| 199 °C | < 1 µM | Cc1nc([C@]2(OCC3CC3)CC[C@](C(=O)O)(c3ccccc3)CC2)n(CC2CC2)c1-c1ccc(F)cc1 [Example 427, Cis-4-Cyclopropylmethoxy-4-[1-cyclopropylmethyl-5-(4-fluorophenyl)-4-methyl-1H-imidazol-2-yl]-1-phenylcyclohexanecarboxylic Acid] |
| 187 °C | < 1 µM | Cc1cnc([C@]2(OCC3CC3)CC[C@](C(=O)O)(c3ccc(F)cc3)CC2)n1CC1CC1 [Example 357, Cis-4-Cyclopropylmethoxy-4-(1-cyclopropylmethyl-5-methyl-1H-imidazol-2-yl)-1-(4-fluorophenyl)cyclohexanecarboxylic Acid] |
| 245 °C | < 1 µM | Cc1c(C#N)nc([C@]2(OCC3CC3)CC[C@](C(=O)O)(c3ccc(F)cc3)CC2)n1CC1CC1 [Example 418, Cis-4-(4-Cyano-1-cyclopropylmethyl-5-methyl-1H-imidazol-2-yl)-4-cyclopropylmethoxy-1-(4-fluorophenyl)cyclohexanecarboxylic Acid] |
| 218 °C | < 1 µM | Cc1nc([C@]2(OCC3CC3)CC[C@](C(=O)O)(c3ccccc3)CC2)n(CC2CC2)c1-c1ccccc1 [Example 426, Cis-4-Cyclopropylmethoxy-4-(1-cyclopropylmethyl-4-methyl-5-phenyl-1H-imidazol-2-yl)-1-phenylcyclohexanecarboxylic Acid] |
| 190 °C | < 1 µM | Cc1nc([C@]2(OCC3CC3)CC[C@](C(=O)O)(c3ccc(F)cc3)CC2)n(CC2CC2)c1Br [Example 354, Cis-4-(5-Bromo-1-cyclopropylmethyl-4-methyl-1H-imidazol-2-yl)-4-cyclopropylmethoxy-1-(4-fluorophenyl)cyclohexanecarboxylic Acid] |
| 227 °C | – | CS(=O)(=O)c1cccc2c1nc([C@]1(OCC3CC3)CC[C@](C(=O)O)(c3ccccc3)CC1)n2CC1CC1 |
| 206 °C | – | Cc1nc([C@]2(OCC3CC3)CC[C@](C(=O)O)(c3ccccc3)CC2)n(CC2CC2)c1S(C)(=O)=O (as salt: sulfonic acid salt) |
| – | < 1 µM | Cc1nc([C@]2(OCCC(C)C)CC[C@](C(=O)O)(c3ccc(F)cc3)CC2)n(CC2CC2)c1C [Example 372] |
| – | < 1 µM | Cc1nc([C@]2(OCC3CC3)CC[C@](C(=O)O)(c3ccccc3)CC2)n(CC2CC2)c1C [Example 377] |
| – | < 1 µM | Cc1cn(CC2CC2)c([C@]2(OCC3CC3)CC[C@](C(=O)O)(c3ccc(F)cc3)CC2)n1 [Example 368] |
| – | < 1 µM | Cc1nc([C@]2(OCC3CC3)CC[C@](C(=O)O)(c3ccc(F)cc3)CC2)n(CC2CC2)c1C [Example 365] |
